Data as given in US11136613B2, “Antibacterial polypeptide libraries and methods for screening the same” (priority 2015, dated 2021).

What was measured:
Assay type in all cases: cell-based
[1] = test system: wild type E. coli strain W3110; conditions: for cell lysis measured by decrease in culture optical density after IPTG induction: surface displayed peptide, E. coli W3110, IPTG added
E. coli = assay: Co-culture of 2× tether+cecropin P1 expressing E. coli and empty vector E. coli, CFU plating and plasmid qPCR; conditions: 3 hours
A. baumannii = assay: Surface expression of 2× tether+cecropin P1 or HA in A. baumannii; conditions: 2× tether surface expression
Source text: FIG. 3: Surface expression of 2× tether+cecropin P1 or HA in A. baumannii. Addition of IPTG leads to rapid lysis of cecropin P1 containing A. baumannii.
The platform uses a plasmid with a broad host range origin of replication offering flexibility to identify antimicrobial peptides in many gram-negative bacteria. For example, A. baumannii is a gram-negative, hospital-associated pathogen that quickly acquires antibiotic resistance. […] The selective marker on this plasmid can be changed to allow its use in bacteria with different antibiotic resistant profiles.

E. coli strain WD101 = conditions: surface displayed peptide, 2× tether, 0.1 mM IPTG

| Substance | cell lysis measured by decrease in culture optical density after IPTG induction [1] | difference in recoverable colony forming units between peptide expressing and control bacteria (E. coli; co-culture in equal ratio, 0.1 mM IPTG) | decrease of ratio of peptide encoding plasmid to empty vector (qPCR) (E. coli; co-culture, 0.1 mM IPTG induction) | lysis of A. baumannii after addition of IPTG (A. baumannii) | cell lysis in resistant strain WD101 compared with parental strain W3110 (E. coli strain WD101) | efficiency of cell lysis depending on tether ([1]; two (2×) tandem low-complexity-region protein tethers, versus 0 and 1× tether, 0.1 mM IPTG) |
| --- | --- | --- | --- | --- | --- | --- |
| Dermaseptin | same impact on cell growth | – | – | – | – | – |
| cecropin P1 (SWLSKTAKKLENSAKKRISEGIAIAIQGGPR; Cecropin-P1; UniProt P14661 14-44, looked up) [known antimicrobial peptide that lyses many gram-negative bacteria through disruption of the outer membrane; positive control] | begin to lyse | 2-3 log | ~50 fold | rapid lysis | less cell lysis | most efficient lysis |
